Values belong to the molecule of their own block, whether it stands above or below them.
Tests used:
[1] = molecular target: T1, cyclooxygenase (human platelets microsomes) (Homo sapiens, UniProt P23219); experiment: Cycloxygenase inhibition in human platelets microsomes; assay type: biochemical; details: cyclooxygenase (PGE2/TxB2), pH 7.9, 37° C.
T1 construct: human platelets microsomes; from tissue; host or cells: human platelet microsomes (microsomal powder)
Procedure: The enzymatic assay was carried out in silanized glassware according to the procedure of P. Ho, P. Walters and H, Sullivan (Prostaglandins 12, 951 1976). The reaction mixture containing 50 mM Tris HCl buffer, pH 7.9, 5mM 2-Tryptophan, […] methemoglobin, 0.2 mg of microsomal powder, and the test compound in a total volume of 0.2 ml was incubated at 37° C. for 5 minutes before the addition of 10 μl of 20 μM^14 C arachidonic acid (0.08 μCI). After 5 minute incubation, the reaction was terminated by the addition of 10 μl of 1M citric acid.
The mixture was extracted four times with 0.5 ml of anhydrous diethyl ether and dried with sodium sulphate. The residue was resuspended in approximately 40 μl of ether and submitted to chromatography on silica gel plates. The elution system consisted of diethyl ether/methanol/acetic acid (90:1:2). The RF values were measured relative to arachidonic acid. Thin layer chromatography plates (TLC) were exposed on LKB ultrafilm for about 24 hours. Partial identification of the spots were carried out by running standards (PGA2, PGB2, PGE2, PGF2c, PXB2, arachidonic acid) in the same solvent system. Quantitative results were obtained by scanning the developed film with a transmission densitometer (EC Apparatus 910) interfaced with a Hewlett Packard 3390A integrator.
The activity of the substances of the cyclooxygenase is quantified by the 2 spots corresponding to PGE2 and TxB2 (ratio PGE2 /TxB2).

[2] = molecular target: xanthine oxidase (Bos taurus, UniProt P80457); experiment: In vitro screening of compounds as potential inhibitors of xanthine oxidase; assay type: biochemical; details: xanthine oxidase 0.01 units/ml, xanthine 5.10^-5 M, pH 7.4
Text: A unit of activity was defined as a change of 0.001 units/minute.

[3] = molecular target: T2, 5-lipoxygenase (human leucocytes) (Homo sapiens, UniProt P09917); experiment: Experiment No. 1: inhibition of 5-lipoxygenase in human leucocytes stimulated by ionophore (5-HETE, LTB4); assay type: cell-based; details: Experiment No. 1, 5-HETE, ionophore A23187 alone
T2 construct: human leucocytic lipoxygenase; endogenous in cells; host or cells: human (polynuclear) leucocytes
T2 sequence (P09917 1-674): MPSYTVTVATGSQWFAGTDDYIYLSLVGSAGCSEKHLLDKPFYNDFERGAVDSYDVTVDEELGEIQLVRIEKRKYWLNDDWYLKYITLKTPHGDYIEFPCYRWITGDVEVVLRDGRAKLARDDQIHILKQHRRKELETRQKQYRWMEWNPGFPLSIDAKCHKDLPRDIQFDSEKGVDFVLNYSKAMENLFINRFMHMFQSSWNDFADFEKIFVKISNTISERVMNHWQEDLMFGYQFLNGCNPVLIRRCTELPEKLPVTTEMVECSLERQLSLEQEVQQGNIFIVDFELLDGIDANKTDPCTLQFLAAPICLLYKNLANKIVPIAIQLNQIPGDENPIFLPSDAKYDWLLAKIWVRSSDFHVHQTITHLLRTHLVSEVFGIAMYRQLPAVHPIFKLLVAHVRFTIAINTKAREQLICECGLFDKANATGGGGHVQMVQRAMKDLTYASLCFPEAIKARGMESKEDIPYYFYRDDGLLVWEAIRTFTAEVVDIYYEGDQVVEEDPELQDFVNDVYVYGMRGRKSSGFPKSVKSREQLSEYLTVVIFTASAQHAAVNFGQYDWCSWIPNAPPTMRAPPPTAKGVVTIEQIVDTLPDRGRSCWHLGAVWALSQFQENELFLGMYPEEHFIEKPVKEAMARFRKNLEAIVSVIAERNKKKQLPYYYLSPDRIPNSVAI
Procedure: (§1) (a) Inhibition on 5- and 12- lipoxygenases human polynuclear
(§2) Protocol for experiment No. 1:
(§3) 2. Stimulation with 1 μg ionophore (A23187)/ml for 4 minutes.
(§4) 3. Stopping of the incubation with 1 volume of methanol.
(§5) 4. Analysis by RP-HPLC, colomn C18, 5 μm.
(§6) 5. Measurement of the height of the peaks and comparison with the internal standard (PGB2).

[4] = molecular target: T3, 12-lipoxygenase (human leucocytes) (Homo sapiens, UniProt P18054); experiment: Experiment No. 1: inhibition of 12-lipoxygenase in human leucocytes stimulated by ionophore (12-HETE); assay type: cell-based; details: Experiment No. 1, 12-HETE, ionophore A23187 alone
T3 construct: human leucocytic lipoxygenase; endogenous in cells; host or cells: human (polynuclear) leucocytes
T3 sequence (P18054 1-663): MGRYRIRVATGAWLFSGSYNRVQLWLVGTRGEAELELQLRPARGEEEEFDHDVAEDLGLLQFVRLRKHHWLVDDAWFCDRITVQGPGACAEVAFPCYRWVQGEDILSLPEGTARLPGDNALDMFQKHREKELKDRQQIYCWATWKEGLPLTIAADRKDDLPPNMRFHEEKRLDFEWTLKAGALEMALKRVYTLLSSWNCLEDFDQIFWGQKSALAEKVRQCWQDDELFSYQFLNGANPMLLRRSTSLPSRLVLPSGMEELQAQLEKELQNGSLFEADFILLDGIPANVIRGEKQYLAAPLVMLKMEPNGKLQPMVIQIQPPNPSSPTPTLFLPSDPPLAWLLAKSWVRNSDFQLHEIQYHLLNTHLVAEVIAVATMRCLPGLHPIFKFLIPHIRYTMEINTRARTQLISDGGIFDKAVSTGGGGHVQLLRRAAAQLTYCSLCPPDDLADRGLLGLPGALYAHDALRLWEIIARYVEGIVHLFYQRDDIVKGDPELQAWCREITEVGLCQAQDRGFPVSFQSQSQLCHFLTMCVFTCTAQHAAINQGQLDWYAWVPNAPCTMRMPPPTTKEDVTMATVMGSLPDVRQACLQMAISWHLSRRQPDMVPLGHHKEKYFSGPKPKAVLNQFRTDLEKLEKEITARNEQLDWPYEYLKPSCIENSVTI
Procedure: as §1, §2, §3, §4, §5, §6

[5] = molecular target: T2, 5-lipoxygenase (human leucocytes); experiment: Experiment No. 2: inhibition of 5-lipoxygenase in human leucocytes stimulated by ionophore and arachidonic acid (5-HETE, LTB4); assay type: cell-based
Procedure: (§7) (b) Inhibition on 5-, 12- and 15- lipoxygenases human polynuclear
(§8) Protocol for experiment No. 2:
(§9) 2. Stimulation with 10 μg of arachidonic acid and 1 μg of ionophore (A23187)/ml for 4 minutes.
(§10) 3. Stopping of the incubation with 1 volume of methanol and analysis by RP-HPLC.
(§11) 4. Measurement of the height of the peaks and comparison with the internal standard (PGB2).
(§12) It will be noted that in experiment No. 1, the leucocytes have been stimulated by the ionophore alone whereas in experiment No. 2, the cells have been stimulated with ionophore and arachidonic acid.

[6] = tested on: HHT (human leucocytes); experiment: Experiment No. 2: HHT formation in human leucocytes stimulated by ionophore and arachidonic acid; assay type: cell-based; details: Leucocyte, ionophore A23187 and arachidonic acid
Procedure: as §7, §8, §9, §10, §11

[7] = molecular target: T4, 15-lipoxygenase (human leucocytes) (Homo sapiens, UniProt P16050); experiment: Experiment No. 2: inhibition of 15-lipoxygenase in human leucocytes stimulated by ionophore and arachidonic acid (15-HETE); assay type: cell-based; details: Experiment No. 2, 15-HETE, ionophore A23187 and arachidonic acid
T4 construct: endogenous in cells; host or cells: human (polynuclear) leucocytes
T4 sequence (P16050 1-662): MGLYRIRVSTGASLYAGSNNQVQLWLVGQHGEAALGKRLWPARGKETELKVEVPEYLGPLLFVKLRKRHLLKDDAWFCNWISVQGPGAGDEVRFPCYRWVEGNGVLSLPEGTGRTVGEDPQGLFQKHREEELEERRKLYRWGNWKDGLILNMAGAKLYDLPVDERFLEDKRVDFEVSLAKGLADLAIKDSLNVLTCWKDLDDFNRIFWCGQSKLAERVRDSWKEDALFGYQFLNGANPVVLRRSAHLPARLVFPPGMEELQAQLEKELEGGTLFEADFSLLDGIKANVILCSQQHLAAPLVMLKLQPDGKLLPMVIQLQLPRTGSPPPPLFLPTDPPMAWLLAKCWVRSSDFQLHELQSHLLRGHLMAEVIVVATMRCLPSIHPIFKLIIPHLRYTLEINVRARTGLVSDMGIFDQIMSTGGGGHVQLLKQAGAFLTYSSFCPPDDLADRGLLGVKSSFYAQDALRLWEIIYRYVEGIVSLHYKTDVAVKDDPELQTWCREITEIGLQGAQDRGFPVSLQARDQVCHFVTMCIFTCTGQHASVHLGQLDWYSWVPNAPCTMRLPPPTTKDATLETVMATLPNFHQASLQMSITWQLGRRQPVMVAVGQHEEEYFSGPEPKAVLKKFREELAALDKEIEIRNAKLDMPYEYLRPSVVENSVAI
Procedure: as §7, §8, §9, §10, §11, §12

[8] = molecular target: T3, 12-lipoxygenase (human leucocytes); experiment: Experiment No. 2: inhibition of 12-lipoxygenase in human leucocytes stimulated by ionophore and arachidonic acid (12-HETE); assay type: cell-based; details: Experiment No. 2, 12-HETE, ionophore A23187 and arachidonic acid
Procedure: as §7, §8, §9, §10, §11, §12

[9] = tested on: guinea pig ileum; details: histamine relative to LTC 4, molar basis; cited from earlier work
[10] = Experiment No. 2, 5-HETE, ionophore A23187 and arachidonic acid, read-out: IC50 5-HETE
[11] = Experiment No. 2, LTB4, ionophore A23187 and arachidonic acid, read-out: IC50 LTB4 (converted)

xanthine oxidase, sequence (P80457 whole entry): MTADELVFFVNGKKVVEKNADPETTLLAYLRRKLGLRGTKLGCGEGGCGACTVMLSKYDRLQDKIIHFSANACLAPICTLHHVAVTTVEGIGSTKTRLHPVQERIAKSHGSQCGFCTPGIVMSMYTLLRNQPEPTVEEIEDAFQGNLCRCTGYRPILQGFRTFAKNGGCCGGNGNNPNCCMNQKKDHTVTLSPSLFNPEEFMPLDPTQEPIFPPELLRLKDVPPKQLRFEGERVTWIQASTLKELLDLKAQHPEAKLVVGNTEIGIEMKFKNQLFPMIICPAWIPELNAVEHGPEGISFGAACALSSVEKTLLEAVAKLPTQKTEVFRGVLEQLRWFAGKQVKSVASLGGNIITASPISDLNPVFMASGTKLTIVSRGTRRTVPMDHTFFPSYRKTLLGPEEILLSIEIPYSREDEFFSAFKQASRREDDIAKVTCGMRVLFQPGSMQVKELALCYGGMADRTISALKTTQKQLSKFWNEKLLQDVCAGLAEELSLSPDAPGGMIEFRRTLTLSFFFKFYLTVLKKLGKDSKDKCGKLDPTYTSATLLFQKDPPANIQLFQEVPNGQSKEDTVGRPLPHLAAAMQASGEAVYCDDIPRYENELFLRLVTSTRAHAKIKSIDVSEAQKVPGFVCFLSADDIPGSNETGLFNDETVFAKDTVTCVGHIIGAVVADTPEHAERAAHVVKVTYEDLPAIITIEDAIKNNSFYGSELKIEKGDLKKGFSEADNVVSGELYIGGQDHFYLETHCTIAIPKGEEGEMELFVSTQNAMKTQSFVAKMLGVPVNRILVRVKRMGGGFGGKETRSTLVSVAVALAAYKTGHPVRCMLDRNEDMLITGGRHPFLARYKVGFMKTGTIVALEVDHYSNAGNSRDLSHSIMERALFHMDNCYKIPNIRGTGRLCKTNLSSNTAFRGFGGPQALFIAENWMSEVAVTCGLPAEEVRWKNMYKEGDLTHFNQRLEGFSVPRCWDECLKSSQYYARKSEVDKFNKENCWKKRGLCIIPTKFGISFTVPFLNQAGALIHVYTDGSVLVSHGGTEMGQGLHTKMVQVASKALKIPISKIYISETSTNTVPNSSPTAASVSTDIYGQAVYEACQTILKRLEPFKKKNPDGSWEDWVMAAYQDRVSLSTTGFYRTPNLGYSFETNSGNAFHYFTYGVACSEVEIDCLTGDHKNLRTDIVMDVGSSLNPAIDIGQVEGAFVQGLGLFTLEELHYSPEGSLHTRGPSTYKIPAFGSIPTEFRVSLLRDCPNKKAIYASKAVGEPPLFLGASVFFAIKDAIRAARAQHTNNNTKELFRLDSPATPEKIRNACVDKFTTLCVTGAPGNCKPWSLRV
T1 sequence (P23219 24-599): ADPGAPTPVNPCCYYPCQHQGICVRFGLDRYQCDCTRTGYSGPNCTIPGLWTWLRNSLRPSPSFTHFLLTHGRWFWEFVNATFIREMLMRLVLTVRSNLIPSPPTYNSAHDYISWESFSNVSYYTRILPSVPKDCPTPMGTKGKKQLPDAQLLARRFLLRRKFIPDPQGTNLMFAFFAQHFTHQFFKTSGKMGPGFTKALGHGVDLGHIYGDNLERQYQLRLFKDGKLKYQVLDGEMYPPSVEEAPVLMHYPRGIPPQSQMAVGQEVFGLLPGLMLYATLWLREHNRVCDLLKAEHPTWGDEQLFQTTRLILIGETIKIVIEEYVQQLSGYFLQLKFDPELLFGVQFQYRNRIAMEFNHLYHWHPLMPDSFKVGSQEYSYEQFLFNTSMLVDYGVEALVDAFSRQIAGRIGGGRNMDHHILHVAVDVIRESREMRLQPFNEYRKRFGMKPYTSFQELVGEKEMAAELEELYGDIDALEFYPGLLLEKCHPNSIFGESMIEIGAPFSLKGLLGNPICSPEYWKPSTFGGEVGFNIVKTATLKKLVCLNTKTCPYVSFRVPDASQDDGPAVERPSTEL

Structure (SMILES): CC1CCC(C(C)C)C(Sc2ccc(O)c(O)c2)C1 (centres unmarked) [drawing 22]
IC50 [1]: 16.8 µM

Structure (SMILES): CCCCCCC(C)Sc1ccc(O)c(O)c1 (centres unmarked) [drawing 23]
IC50 [1]: 3.46 µM

Structure (SMILES): CCCCCCC(C)Sc1ccc(O)c(O)c1 (centres unmarked) [drawing 29]
IC50 [2]: 557 µM

Structure (SMILES): NCCc1c[nH]cn1 [histamine]
times less active than LTC 4 on a molar basis [9]: 200 times

Now from value to molecule:

IC50 [2]: 237 µM
Structure (SMILES): Oc1ccc(S)cc1O [drawing 27]

IC50 [2]: 511 µM
Structure (SMILES): CCC(C)CSc1ccc(O)c(O)c1 (centres unmarked) [drawing 28]

IC50 [3]: 1000 nM | IC50 [4]: 1000 nM
Structure (SMILES): CCC(C)CSc1ccc(O)c(O)c1 (centres unmarked) [drawing 30]

IC50 [3]: 2000 nM | IC50 [4]: 2000 nM
Structure (SMILES): Oc1ccc(S)cc1O [drawing 31]

IC50 [5, 10]: 1000 nM | IC50 [5, 11]: 3000 nM | IC50 [6]: 20 µM | IC50 [7]: 50 µM
Structure (SMILES): Oc1ccc(S)cc1O [drawing 32]

IC50 [5, 11]: 3000 nM | IC50 [6]: 50 µM | IC50 [8]: 10 µM | IC50 [7]: 10 µM
Structure (SMILES): CCC(C)CSc1ccc(O)c(O)c1 (centres unmarked) [drawing 33]

IC50 [5, 10]: 1000 nM | IC50 [5, 11]: 1000 nM | IC50 [6]: 2 µM | IC50 [8]: 2 µM | IC50 [7]: 10 µM
Structure (SMILES): CCCCCCC(C)Sc1ccc(O)c(O)c1 (centres unmarked) [drawing 34]

Source: US5013756A, “Catechol derivatives, a process of preparation thereof, and therapeutical compositions containing the same” (priority 1985, dated 1991)
